Our source for the IC50 values is BindingDB's records for doi:10.1080/14756360500112326 (National Institute of Pharmaceutical Education and Research, 2005).

The term IC50 denotes the concentration needed to halve the response being measured. Read a high IC50 as lower potency.

Xanthine dehydrogenase/oxidase, sequence (P47989 whole entry): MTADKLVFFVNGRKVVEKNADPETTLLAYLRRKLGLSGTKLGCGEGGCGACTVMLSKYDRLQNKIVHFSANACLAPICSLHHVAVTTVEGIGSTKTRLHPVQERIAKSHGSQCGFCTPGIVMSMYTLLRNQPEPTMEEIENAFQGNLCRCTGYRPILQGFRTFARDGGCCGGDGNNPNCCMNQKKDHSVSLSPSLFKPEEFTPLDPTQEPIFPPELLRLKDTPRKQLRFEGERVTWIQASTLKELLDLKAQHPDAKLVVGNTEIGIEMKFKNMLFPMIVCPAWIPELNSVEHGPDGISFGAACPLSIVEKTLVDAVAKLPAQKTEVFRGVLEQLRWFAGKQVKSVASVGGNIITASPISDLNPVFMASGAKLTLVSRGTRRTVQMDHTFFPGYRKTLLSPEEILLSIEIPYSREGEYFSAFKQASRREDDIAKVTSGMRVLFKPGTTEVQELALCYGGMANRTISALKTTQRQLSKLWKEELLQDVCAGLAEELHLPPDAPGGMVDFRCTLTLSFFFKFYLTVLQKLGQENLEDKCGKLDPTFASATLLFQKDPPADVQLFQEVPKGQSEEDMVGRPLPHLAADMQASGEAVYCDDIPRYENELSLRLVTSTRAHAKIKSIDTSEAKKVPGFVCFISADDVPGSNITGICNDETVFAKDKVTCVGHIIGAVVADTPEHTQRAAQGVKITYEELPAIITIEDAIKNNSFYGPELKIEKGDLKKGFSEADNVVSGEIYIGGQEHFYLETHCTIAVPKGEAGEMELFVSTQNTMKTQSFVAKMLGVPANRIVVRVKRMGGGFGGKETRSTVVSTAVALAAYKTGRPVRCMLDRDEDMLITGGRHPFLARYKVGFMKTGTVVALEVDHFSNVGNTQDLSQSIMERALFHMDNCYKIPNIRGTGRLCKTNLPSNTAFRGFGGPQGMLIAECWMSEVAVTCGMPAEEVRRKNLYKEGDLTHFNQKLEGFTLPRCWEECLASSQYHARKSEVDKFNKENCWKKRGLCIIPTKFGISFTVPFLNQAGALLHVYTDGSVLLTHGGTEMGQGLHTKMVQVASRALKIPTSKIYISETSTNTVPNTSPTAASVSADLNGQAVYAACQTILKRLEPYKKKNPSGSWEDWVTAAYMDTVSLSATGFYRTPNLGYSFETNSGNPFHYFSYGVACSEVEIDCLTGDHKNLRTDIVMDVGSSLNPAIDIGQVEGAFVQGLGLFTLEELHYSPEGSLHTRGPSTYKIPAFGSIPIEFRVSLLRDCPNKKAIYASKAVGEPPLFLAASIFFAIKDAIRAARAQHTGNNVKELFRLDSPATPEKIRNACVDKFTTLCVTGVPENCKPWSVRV

The target of the experiment is Xanthine dehydrogenase/oxidase (Homo sapiens, UniProt P47989). As to the kind of experiment: Xanthine Oxidase Inhibition Assay. The protocol:
Inhibition assay of the xanthine oxidase reaction by various purine based inhibitors was measured in terms of the decrease in uric acid formation at […].
In the case of `Nc1ncnc2nc[nH]c12`, 75.6 µM corresponded to half-maximal inhibition (IC50).

For the molecule `O=C(Nc1ncnc2nc[nH]c12)c1ccccc1` [6-(N-benzoylamino)purine, 2], the IC50 worked out at 0.45 µM.

The molecule `O=c1[nH]c(=O)c2[nH]c(Br)nc2[nH]1` [8-Bromoxanthine, 3] displayed an IC50 of 400 µM.
